In patent US10913727B2, “Modulators of the integrated stress pathway” (Calico Life Sciences LLC, priority 2016, dated 2021):

tested on: HEK293T cells carrying the ATF4 luciferase reporter; test: ATF4-Luc assay, in vitro model of Vanishing Cell White Matter Disease (VWMD); type: cell-based; conditions: Homo sapiens, HEK-293T, 1 μg/mL tunicamycin, 7 hours, One Glo luminescence
Outline: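 Reporter cells were stably generated by retroviral transduction and puromycin selection, then seeded at 30,000 cells/well. Next day, cells received 1 μg/mL tunicamycin with 200 nM test compound for 7 h, and luciferase luminescence was read with a one-step reagent. Values reported as EC50.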

Compound | EC50
Cc1cnc(C(=O)NC23CCC(NC(=O)COc4ccc(Cl)c(Cl)c4)(CC2)[C@@H](O)C3)cn1 [Compound 735, N-{(3S)-4-[2-(3,4-dichlorophenoxy)acetamido]-3-hydroxybicyclo[2.2.2]octan-1-yl}-5-methylpyrazine-2-carboxamide] | < 50 nM
Cn1cc2c(NC34CC(NC(=O)COc5ccc(Cl)c(F)c5)(C3)C4)nccc2n1 [Compound 492, 2-(4-chloro-3-fluorophenoxy)-N-{3-[(2-methyl-2H-pyrazolo[4,3-c]pyridin-4-yl)amino]bicyclo[1.1.1]pentan-1-yl}acetamide] | 50 to 250 nM
Cc1nc2cc(C(=O)NC34CC(NC(=O)COc5ccc(Cl)c(F)c5)(C3)C4)ccc2n1C [Compound 810, N-{3-[2-(4-chloro-3-fluorophenoxy)acetamido]bicyclo[1.1.1]pentan-1-yl}-1,2-dimethyl-1H-benzimidazole-5-carboxamide] | > 2000 nM
N#Cc1cncc(NC23CC(NC(=O)COc4ccc(Cl)c(F)c4)(C2)C3)n1 [Compound 745, 2-(4-chloro-3-fluorophenoxy)-N-{3-[(6-cyanopyrazin-2-yl)amino]bicyclo[1.1.1]pentan-1-yl}acetamide] | > 2000 nM
Cc1cc(C(=O)NC23CCC(NC(=O)COc4ccc(Cl)c(F)c4)(CC2)[C@@H](O)C3)n(C)n1 (single isomer, unassigned) [Compound 485] | < 50 nM
O=C(COc1ccc(F)c(F)c1)NC12CC(Nc3cncc(-c4cccnc4)n3)(C1)C2 [Compound 743, 2-(3,4-difluorophenoxy)-N-(3-{[6-(pyridin-3-yl)pyrazin-2-yl]amino}bicyclo[1.1.1]pentan-1-yl)acetamide] | > 2000 nM
O=C(COc1ccc(Cl)c(F)c1)NC12CC(NC(=O)c3cc4ccccc4cn3)(C1)C2 [Compound 660, N-{3-[2-(4-chloro-3-fluorophenoxy)acetamido]bicyclo[1.1.1]pentan-1-yl}isoquinoline-3-carboxamide] | 250 to 1000 nM
CCc1nc(C(=O)NC23CC(NC(=O)COc4ccc(Cl)c(F)c4)(C2)C3)co1 [Compound 251, N-{3-[2-(4-chloro-3-fluorophenoxy)acetamido]bicyclo[1.1.1]pentan-1-yl}-2-ethyl-1,3-oxazole-4-carboxamide] | 50 to 250 nM
CC(C)(O)CCc1ccnc(C(=O)NC23CC(NC(=O)COc4ccc(Cl)c(Cl)c4)(C2)C3)c1 [Compound 433, N-{3-[2-(3,4-dichlorophenoxy)acetamido]bicyclo[1.1.1]pentan-1-yl}-4-(3-hydroxy-3-methylbutyl)pyridine-2-carboxamide] | > 2000 nM
O=C(COc1ccc(Cl)c(F)c1)NC12CC(NC(=O)c3ccc(-c4ccc(Cl)c(F)c4)o3)(C1)C2 [Compound 106, N-{3-[2-(4-chloro-3-fluorophenoxy)acetamido]bicyclo[1.1.1]pentan-1-yl}-5-(4-chloro-3-fluorophenyl)furan-2-carboxamide] | < 50 nM
Cn1nc(C(F)F)cc1C(=O)NC12CCC(NC(=O)COc3ccc(Cl)c(F)c3)(CC1)C[C@@H]2O [Compound 413, N-{(2S)-4-[2-(4-chloro-3-fluorophenoxy)acetamido]-2-hydroxybicyclo[2.2.2]octan-1-yl}-3-(difluoromethyl)-1-methyl-1H-pyrazole-5-carboxamide] | < 50 nM
O=C(COc1ccc(Cl)c(F)c1)NC12CC(NC(=O)c3ccc4ocnc4c3)(C1)C2 [Compound 801, N-{3-[2-(4-chloro-3-fluorophenoxy)acetamido]bicyclo[1.1.1]pentan-1-yl}-1,3-benzoxazole-5-carboxamide] | > 2000 nM
N#Cc1cccc(C(=O)NC23CC(NC(=O)COc4ccc(Cl)c(F)c4)(C2)C3)c1 [Compound 366, N-{3-[2-(4-chloro-3-fluorophenoxy)acetamido]bicyclo[1.1.1]pentan-1-yl}-3-cyanobenzamide] | 50 to 250 nM
O=C(COc1ccc(Cl)c(F)c1)NC12CC(NC(=O)c3ncc4ccccc4n3)(C1)C2 [Compound 749, N-{3-[2-(4-chloro-3-fluorophenoxy)acetamido]bicyclo[1.1.1]pentan-1-yl}quinazoline-2-carboxamide] | 50 to 250 nM
Cc1cc(C(=O)NC23CCC(NC(=O)COc4ccc(Cl)c(F)c4)(CC2)C(O)C3)sn1 (stereo not shown) [Compound 578, N-{4-[2-(4-chloro-3-fluorophenoxy)acetamido]-3-hydroxybicyclo[2.2.2]octan-1-yl}-3-methyl-1,2-thiazole-5-carboxamide] | < 50 nM
CCn1nc(C(=O)NC23CC(NC(=O)COc4ccc(Cl)c(F)c4)(C2)C3)cc1C [Compound 836, N-{3-[2-(4-chloro-3-fluorophenoxy)acetamido]bicyclo[1.1.1]pentan-1-yl}-1-ethyl-5-methyl-1H-pyrazole-3-carboxamide] | > 2000 nM
NCc1ccnc(C(=O)NC23CC(NC(=O)COc4ccc(Cl)c(F)c4)(C2)C3)c1 [Compound 193, 4-(aminomethyl)-N-{3-[2-(4-chloro-3-fluorophenoxy)acetamido]bicyclo[1.1.1]pentan-1-yl}pyridine-2-carboxamide] | 50 to 250 nM
CCc1nc(C)c(C(=O)NC23CC(NC(=O)COc4ccc(Cl)c(F)c4)(C2)C3)o1 [Compound 906, N-{3-[2-(4-chloro-3-fluorophenoxy)acetamido]bicyclo[1.1.1]pentan-1-yl}-2-ethyl-4-methyl-1,3-oxazole-5-carboxamide] | 250 to 1000 nM
O=C(COc1ccc(Cl)c(F)c1)NC12CC(NC(=O)c3cc(C4CC4)no3)(C1)C2 [Compound 244, N-{3-[2-(4-chloro-3-fluorophenoxy)acetamido]bicyclo[1.1.1]pentan-1-yl}-3-cyclopropyl-1,2-oxazole-5-carboxamide] | 50 to 250 nM
O=C(COc1ccc(Cl)c(F)c1)NC12CC(Nc3cnccn3)(C1)C2 [Compound 725, 2-(4-chloro-3-fluorophenoxy)-N-{3-[(pyrazin-2-yl)amino]bicyclo[1.1.1]pentan-1-yl}acetamide] | 1000 to 2000 nM
Cc1cc(Cl)cnc1C(=O)NC12CC(NC(=O)COc3ccc(Cl)c(F)c3)(C1)C2 [Compound 777, 5-chloro-N-{3-[2-(4-chloro-3-fluorophenoxy)acetamido]bicyclo[1.1.1]pentan-1-yl}-3-methylpyridine-2-carboxamide] | > 2000 nM
Cc1ccnc(C(=O)NC23CCC(NC(=O)COc4ccc(Cl)c(F)c4)(CC2)C(O)C3)c1 (stereo not shown) [Compound 915, N-{4-[2-(4-chloro-3-fluorophenoxy)acetamido]-3-hydroxybicyclo[2.2.2]octan-1-yl}-4-methylpyridine-2-carboxamide] | 250 to 1000 nM
Cc1cc(C(=O)NC23CCC(NC(=O)COc4ccc(Cl)c(F)c4)(CC2)CC3F)on1 (stereo not shown) [Compound 374, N-{4-[2-(4-chloro-3-fluorophenoxy)acetamido]-2-fluorobicyclo[2.2.2]octan-1-yl}-3-methyl-1,2-oxazole-5-carboxamide] | > 2000 nM
Cc1cnc(C(=O)NC23CCC(NC(=O)COc4ccc(Cl)c(F)c4)(CC2)C[C@@H]3O)cn1 [Compound 733, N-{(2S)-4-[2-(4-chloro-3-fluorophenoxy)acetamido]-2-hydroxybicyclo[2.2.2]octan-1-yl}-5-methylpyrazine-2-carboxamide] | > 2000 nM
O=C(COc1ccc(Cl)c(Cl)c1)NC12CC(NC(=O)c3ccc(OC(F)F)cn3)(C1)C2 [Compound 153, N-{3-[2-(3,4-dichlorophenoxy)acetamido]bicyclo[1.1.1]pentan-1-yl}-5-(difluoromethoxy)pyridine-2-carboxamide] | 50 to 250 nM
